Assay results: paper PMC12807533 (Science (New York, N.Y.), 2025)

Experiments:
XanP (His-XanP) = tested on: T1, XanP (His-XanP)
T1 construct: gene XOC_0142
T1 sequence (G7TIV3 32-261 limits assumed): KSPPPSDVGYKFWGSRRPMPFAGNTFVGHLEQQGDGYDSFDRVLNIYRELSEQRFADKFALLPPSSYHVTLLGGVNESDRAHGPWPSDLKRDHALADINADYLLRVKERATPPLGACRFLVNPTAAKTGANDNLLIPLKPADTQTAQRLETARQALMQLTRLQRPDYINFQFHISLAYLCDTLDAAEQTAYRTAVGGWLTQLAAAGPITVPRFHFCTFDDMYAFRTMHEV

Chain of AvrBs2 (AvrBs2-FLAG) (G7TIV7 1-714): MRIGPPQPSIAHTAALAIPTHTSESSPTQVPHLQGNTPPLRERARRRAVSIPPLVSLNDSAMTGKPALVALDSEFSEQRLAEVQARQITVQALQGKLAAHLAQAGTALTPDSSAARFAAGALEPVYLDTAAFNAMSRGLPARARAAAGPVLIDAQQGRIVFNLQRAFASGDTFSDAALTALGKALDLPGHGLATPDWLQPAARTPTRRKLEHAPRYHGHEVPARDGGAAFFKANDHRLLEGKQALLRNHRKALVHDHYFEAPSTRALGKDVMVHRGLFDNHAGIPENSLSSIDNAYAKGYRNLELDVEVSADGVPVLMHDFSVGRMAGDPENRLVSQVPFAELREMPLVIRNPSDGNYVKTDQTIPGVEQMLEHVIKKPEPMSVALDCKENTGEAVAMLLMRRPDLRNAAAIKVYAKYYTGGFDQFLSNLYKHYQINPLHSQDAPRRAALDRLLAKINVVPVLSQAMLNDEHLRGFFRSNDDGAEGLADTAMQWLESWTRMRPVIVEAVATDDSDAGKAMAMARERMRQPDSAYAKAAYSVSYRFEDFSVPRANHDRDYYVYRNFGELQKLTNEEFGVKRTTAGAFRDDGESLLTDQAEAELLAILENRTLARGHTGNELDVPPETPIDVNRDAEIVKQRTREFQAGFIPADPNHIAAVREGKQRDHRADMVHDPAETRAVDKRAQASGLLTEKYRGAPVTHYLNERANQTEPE

SMILES | TLC and HILIC-ESI-MS of in vitro xanthosan synthesis (AvrBs2 (AvrBs2-FLAG)) | TLC of hydrolysis products (XanP (His-XanP))
O=P1(O)OC[C@H]2O[C@H](OP(=O)(O)OC[C@H]3O[C@H](O1)[C@H](O)[C@@H](O)[C@H]3O)[C@H](O)[C@@H](O)[C@H]2O [xanthosan, bis-(1,6)-cyclic dimeric α-D-galactose-phosphate] | AvrBs2 converts UDP-α-D-galactose into xanthosan | –
O=P(O)(O)O[C@H]1O[C@H](CO)[C@H](O)[C@H](O)[C@H]1O [Gal-1-P] | – | the other product migrated similarly to Gal-1-P, but not Gal-6-P
